Converted amounts (≈) assume the structure as drawn. “And” between values parts separate entries of the source, which are not always exact repeats. Identical values can stand only once. Like-named read-outs stand apart in the source and are kept apart here.
Columns and labels:
physchem = type: physicochemical; conditions: for solubility thermodynamic at 24 h / solubility thermodynamic at 48 h: phosphate-buffered saline (PBS)
Experimental: For the PBS, 2.38 g of disodium hydrogen phosphate dodecahydrate, 0.19 g of potassium dihydrogen phosphate, and 8.0 g of sodium chloride were added to distilled water (900 mL), and the solution was mixed overnight. […] Samples were prepared by weighing the exact mass of solid compounds (about 1 mg), and then, the appropriate volume of PBS was added to reach the final concentration of ∼1 mg/mL. […] The supernatant was diluted 3× with a 1:1 mixture of 0.1% TFA in water and acetonitrile and analyzed by HPLC. For the 7-point calibration curves, concentrated stock solutions of the compounds were prepared at concentrations of 10 and 0.5 mM in DMSO, which were diluted with a 1:1 mixture of 0.1% TFA in water and acetonitrile to the desired final concentrations and analyzed by HPLC. Results are given in μM as an average value of two independent experiments. For details on calibration curves, concentrations, analytical method, and HPLC method, see the Supporting Information.
Thermodynamic solubility assay
To determine thermodynamic solubility of compounds in PBS, calibration curves for the assayed compounds were prepared using seven concentrations. First, DMSO stock solutions of compounds at 10 mM and 0.5 mM concentration were prepared and then diluted (0.1% TFA in […]
Quality control (QC) samples were diluted from stock solutions with a 1:1 mixture of 0.1% TFA in water and acetonitrile to final concentrations of 60 µM, 20 µM, and 2 µM (6 µM, 2 µM, and 0.2 µM for 7f or 0.6 µM, 0.2 µM, and 0.02 µM for 7g).
Analytical reversed-phase UHPLC analyses were performed on Thermo Scientific Dionex UltiMate 3000 modular system (Thermo Fisher Scientific Inc., MA, USA). Waters Acquity UPLC® HSS C18 SB column (2.1 × 50 mm, 1.8 μm; Waters, Milford, MA, USA) was used at T […]
Mobile phase consisted of 0.1% trifluoroacetic acid in ultrapure water (solvent A) and acetonitrile […]
The obtained data was processed in Chromeleon CDS software (Thermo Fisher Scientific Inc., […]
Analytical method was tested for accuracy, precision and linear rang. Accuracy was […]
(or 2 or 0.2) µM and 60 (or 6 or 0.6) µM) to their true values and expressed in (%). Values were […]
Method repeatability was determined by calculating the RSD from the separately prepared and analysed quality control samples (n = 3). […] Linearity of the […]
method (1 (or 0.1 or 0.01) µM to 100 (or 10 or 1) µM) was evaluated from the 7-point calibration […]
Solubility was determined in two independent experiments and results were calculated in […]

[1] = tested on: 3 sensitive and 7 MDR A. baumannii clinical isolates; experiment: MIC, Hungarian clinical isolates and controls (384-well); type: cell-based; conditions: n=10
[2] = pH 7.4, PBS pH 7.4, read-out: thermodynamic solubility, Experiment 1
[3] = pH 7.4, PBS pH 7.4, read-out: thermodynamic solubility, Experiment 2
[4] = pH 7.4, thermodynamic solubility (pH = 7.4), PBS, 37 °C, 24 h, mean of two

Question: Which “thermodynamic solubility (pH = 7.4)” value (physchem; PBS, 37 °C, 24 h, mean of two) does the source give for `Cc1[nH]c(C(=O)Nc2nc3c(N4CCOC(C)C4)cc(C(=O)O)cc3s2)c(Cl)c1Cl` (stereo not drawn) [7e, 2-(3,4-Dichloro-5-methyl-1H-pyrrole-2-carboxamido)-4-(2-methylmorpholino)benzo[d]thiazole-6-carboxylic Acid] here?
Answer: 80.35 µM

Question: And the solubility thermodynamic at 24 h (physchem; [2])?
Answer: 71.9 µM (≈ 33.7 µg/mL)

Question: What about the solubility thermodynamic at 24 h (physchem; [3]) of the same compound?
Answer: 88.8 µM (≈ 41.7 µg/mL)

Question: And the solubility thermodynamic at 24 h (physchem; [4])?
Answer: 80.4 µM (≈ 37.7 µg/mL)

Question: What about the solubility thermodynamic at 48 h (physchem; [4]) of the same compound?
Answer: 80 µM (≈ 37.5 µg/mL)

Question: Which solubility thermodynamic at 24 h (physchem; [2]) does the source give for `Cc1[nH]c(C(=O)Nc2nc3c(N4CC(C)OC(C)C4)cc(C(=O)O)cc3s2)c(Cl)c1Cl` (stereo not drawn) [7f, 2-(3,4-Dichloro-5-methyl-1H-pyrrole-2-carboxamido)-4-(2,6-dimethylmorpholino)benzo[d]thiazole-6-carboxylic Acid] here?
Answer: 0.95 µM (≈ 0.459 µg/mL)

Question: And the solubility thermodynamic at 24 h (physchem; [3])?
Answer: 0.89 µM (≈ 0.43 µg/mL)

Question: What about the solubility thermodynamic at 24 h (physchem; [4]) of the same compound?
Answer: 0.92 µM (≈ 0.445 µg/mL)

Question: For `COCC1CCCN1c1cc(C(=O)O)cc2sc(NC(=O)c3[nH]c(C)c(Cl)c3Cl)nc12` (stereo not drawn) [7n, 2-(3,4-Dichloro-5-methyl-1H-pyrrole-2-carboxamido)-4-(2-(methoxymethyl)pyrrolidin-1-yl)benzo[d]thiazole-6-carboxylic Acid], which “thermodynamic solubility (pH = 7.4)” value (physchem; PBS, 37 °C, 24 h, mean of two) is on record?
Answer: 11.18 µM

Question: What about the solubility thermodynamic at 24 h (physchem; [2]) of the same compound?
Answer: 11 µM (≈ 5.31 µg/mL)

Question: And the solubility thermodynamic at 24 h (physchem; [3])?
Answer: 11.4 µM (≈ 5.49 µg/mL)

Question: What about the solubility thermodynamic at 24 h (physchem; [4]) of the same compound?
Answer: 11.2 µM (≈ 5.41 µg/mL)

Question: What does the source list for `COC[C@@H]1CCCN1c1cc(C(=O)O)cc2sc(NC(=O)c3[nH]c(C)c(Cl)c3Cl)nc12` [7o, (S)-2-(3,4-Dichloro-5-methyl-1H-pyrrole-2-carboxamido)-4-(2-(methoxymethyl)pyrrolidin-1-yl)benzo[d]thiazole-6-carboxylic Acid]?
Answer: thermodynamic solubility (pH = 7.4) (physchem; PBS, 37 °C, 24 h, mean of two): 10.98 µM; solubility thermodynamic at 24 h (physchem; [2]): 10.6 µM (≈ 5.12 µg/mL); solubility thermodynamic at 24 h (physchem; [3]): 11.4 µM (≈ 5.5 µg/mL); solubility thermodynamic at 24 h (physchem; [4]): 11 µM (≈ 5.32 µg/mL)

Question: Which “thermodynamic solubility (pH = 7.4)” value (physchem; PBS, 37 °C, 24 h, mean of two) does the source give for `Cc1[nH]c(C(=O)Nc2nc3c(N4CCC(O)CC4)cc(C(=O)O)cc3s2)c(Cl)c1Cl` [7p, 2-(3,4-Dichloro-5-methyl-1H-pyrrole-2-carboxamido)-4-(4-hydroxypiperidin-1-yl)benzo[d]thiazole-6-carboxylic Acid] here?
Answer: 183.7 µM and 183.67 µM

Question: What about the solubility thermodynamic at 24 h (physchem; [2]) of the same compound?
Answer: 279 µM (≈ 131 µg/mL)

Question: And the solubility thermodynamic at 24 h (physchem; [3])?
Answer: 88.3 µM (≈ 41.4 µg/mL)

Question: What about the solubility thermodynamic at 24 h (physchem; [4]) of the same compound?
Answer: 184 µM (≈ 86.4 µg/mL)

Question: Which “thermodynamic solubility (pH = 7.4)” value (physchem; PBS, 37 °C, 24 h, mean of two) does the source give for `Cc1[nH]c(C(=O)Nc2nc3c(N4CCOCC4)cc(C(=O)O)cc3s2)cc1Cl` [16a, 2-(4-Chloro-5-methyl-1H-pyrrole-2-carboxamido)-4-morpholinobenzo[d]thiazole-6-carboxylic Acid] here?
Answer: 137.58 µM

Question: And the solubility thermodynamic at 24 h (physchem; [2])?
Answer: 134 µM (≈ 56.3 µg/mL)

Question: What about the solubility thermodynamic at 24 h (physchem; [3]) of the same compound?
Answer: 141 µM (≈ 59.6 µg/mL)

Question: What about the solubility thermodynamic at 24 h (physchem; [4]) of the same compound?
Answer: 138 µM (≈ 57.9 µg/mL)

Question: What about the solubility thermodynamic at 48 h (physchem; [4]) of the same compound?
Answer: 137 µM (≈ 57.7 µg/mL)

Question: What does the source list for `Cc1[nH]c(C(=O)Nc2nc3c(N4CCOCC4)cc(C(=O)O)cc3s2)cc1F` [16b, 2-(4-Fluoro-5-methyl-1H-pyrrole-2-carboxamido)-4-morpholinobenzo[d]thiazole-6-carboxylic Acid]?
Answer: thermodynamic solubility (pH = 7.4) (physchem; PBS, 37 °C, 24 h, mean of two): 131.4 µM and 131.42 µM; solubility thermodynamic at 24 h (physchem; [2]): 140 µM (≈ 56.7 µg/mL); solubility thermodynamic at 24 h (physchem; [3]): 123 µM (≈ 49.6 µg/mL); solubility thermodynamic at 24 h (physchem; [4]): 131 µM (≈ 53 µg/mL)

Question: Which “Cumulative % at MIC” value ([1]; MIC […] µg/mL) does the source give for `CO/N=C(\C(=O)N[C@@H]1C(=O)N2C(C(=O)[O-])=C(C[N+]3(C)CCCC3)CS[C@H]12)c1csc(N)n1` [Cefepime, cefepime] here?
Answer: 20%

Question: For `C[C@@H](O)[C@H]1C(=O)N2C(C(=O)O)=C(SCCNC=N)C[C@H]12` [Imipenem, imipenem], which “Cumulative % at MIC” value ([1]; MIC 0.5 µg/mL) is on record?
Answer: 20%

Question: And the “Cumulative % at MIC” value ([1]; MIC 1 µg/mL)?
Answer: 30%

Question: And the “Cumulative % at MIC” value ([1]; MIC 64 µg/mL)?
Answer: 60%

Question: What about the “Cumulative % at MIC” value ([1]; MIC 128 µg/mL) of the same compound?
Answer: 80%

Question: What about the “Cumulative % at MIC” value ([1]; MIC 256 µg/mL) of the same compound?
Answer: 100%

Question: For `C[C@H]1COc2c(N3CCN(C)CC3)c(F)cc3c(=O)c(C(=O)O)cn1c23.C[C@H]1COc2c(N3CCN(C)CC3)c(F)cc3c(=O)c(C(=O)O)cn1c23.O` [Levofloxacin, levofloxacin], which “Cumulative % at MIC” value ([1]; MIC 0.0625 µg/mL) is on record?
Answer: 30%

Question: Which “Cumulative % at MIC” value ([1]; MIC 1 µg/mL) does the source give for `C[C@@H](O)[C@H]1C(=O)N2C(C(=O)O)=C(S[C@@H]3CN[C@H](C(=O)N(C)C)C3)[C@H](C)[C@H]12` [Meropenem, meropenem] here?
Answer: 30%

Question: What about the “Cumulative % at MIC” value ([1]; MIC 64 µg/mL) of the same compound?
Answer: 100%

Question: And the “Cumulative % at MIC” value ([1]; MIC […])?
Answer: 10%
